These results are taken from patent US6017919A, “Compounds and pharmaceutical use thereof” (Japan Tobacco Inc., priority 1996, dated 2000).

In assay [1] the test system is Carageenan-induced paw edema. As to the kind of experiment: Carageenan-induced paw edema model. Type of assay: in vivo, female ddy mice. The conditions noted are these: Mus musculus; po, mice, 1 h before carageenan; paw volume 3 h later. Here is the method: [II] Carageenan-induced paw edema model (in vivo)
Female ddy mice (6-8 weeks old) were used. […] One hour after the administration, 50 μL of 1% carageenan dissolved in physiological saline was intradermally injected into the right foot pad. Three hours later, the volume of the right paw was measured and compared with that measured before the carageenan injection.
(§1) In both [II] and [III], the test compounds were dissolved in DMSO and used upon dilution with olive oil (final concentration of DMSO 1%).

For assay [2], the target named is T1, cannabinoid peripheral type (CB2) receptor (Rattus norvegicus, UniProt Q9QZN9).
T1 construct: rat cerebellar membrane fraction and spleen cells were respectively used; from tissue; host or cells: rat spleen cells (male SD rats, 7-9 weeks old)
T1 sequence (Q9QZN9 1-360): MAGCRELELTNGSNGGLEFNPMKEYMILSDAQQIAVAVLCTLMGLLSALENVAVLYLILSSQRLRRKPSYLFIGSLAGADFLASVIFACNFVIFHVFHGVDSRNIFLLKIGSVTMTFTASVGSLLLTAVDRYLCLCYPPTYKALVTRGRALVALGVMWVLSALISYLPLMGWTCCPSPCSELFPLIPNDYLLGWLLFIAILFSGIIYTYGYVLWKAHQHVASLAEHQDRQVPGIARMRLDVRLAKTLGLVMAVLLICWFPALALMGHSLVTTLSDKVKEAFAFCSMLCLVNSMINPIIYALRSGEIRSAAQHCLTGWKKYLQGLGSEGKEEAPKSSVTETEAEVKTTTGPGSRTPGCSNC
The experiment in a line: Binding assay, cannabinoid peripheral type receptor (CB2), rat spleen cells, [3H]Win55212-2. To be noted: for C/S: ratio of Ki central receptor (C) to Ki peripheral receptor (S). The procedure:
(§2) [I] Binding Assay (in vitro)
(§3) As the sample rich in cannabinoid central type (CB1) and peripheral type (CB2) receptors, rat cerebellar membrane fraction and spleen cells were respectively used (male SD rats, 7-9 weeks old). A sample (cerebellar membrane fraction: 50 μg/ml or spleen cells: 1×10^7 cells/ml), labeled ligand ([^3 H]Win55212-2, 2 nM) and unlabeled Win55212-2 or a test compound were plated in round bottom 24 well plates, and incubated at 30° C. for 90 min in the case of cerebellar membrane fraction, and at 4° C. for 360 min in the case of spleen cells. As the assay buffer, 50 mM Tris solution containing 0.2% BSA was used for cerebellar membrane fraction, and 50 mM Tris-HBSS containing 0.2% BSA was used for spleen cells. After incubation, the samples were filtrated through a filter (Packard, Unifilter 24 GF/B) and dried. A scintillation solution (Packard, Microsint-20) was added, and the radioactivity of the samples was determined (Packard, Top count A9912V). The non-specific binding was determined by adding an excess Win55212-2 (1 μM), and specific binding was calculated by subtracting non-specific binding from the total binding obtained by adding the labeled ligand alone. The test compounds were dissolved in DMSO to the final concentration of DMSO of 0.1%. IC50 was determined from the proportion of the specifically-bound test compounds, and the Ki value of the test compounds was calculated from IC50 and Kd value of [^3 H]Win55212-2.

The subject of assay [3] is Sheep red blood cell-induced delayed type hypersensitivity. As to the kind of experiment: Sheep red blood cell (SRBC)-induced delayed type hypersensitivity (DTH) model. Type of assay: in vivo, female ddy mice. The conditions noted are these: Mus musculus, Erythrocyte; po, mice, 1 h before SRBC challenge; paw volume 24 h after induction. Here is the method:
[III] Sheep red blood cell (SRBC)-induced delayed type hypersensitivity (DTH) model (in vivo)
Female ddy mice (6-8 weeks old) were used. On day 1, SRBC 10^7 cells were intradermally injected into the left foot pad of the mice (40 μl/foot) to immunize the mice. Five days later, the test compounds dissolved in olive oil were orally administered at 10 ml/kg. One hour later, SRBC 10^8 cells were intradermally injected into the right foot pad to induce the response. Twenty-four hours after the induction, the volume of the both paws was measured, and edema ratio was calculated by […].
as §1

Assay [4] deals with T2, cannabinoid central type (CB1) receptor (Rattus norvegicus, UniProt P20272).
T2 construct: rat cerebellar membrane fraction and spleen cells were respectively used; from tissue; host or cells: rat cerebellar membrane fraction (male SD rats, 7-9 weeks old)
As to the kind of experiment: Binding assay, cannabinoid central type receptor (CB1), rat cerebellar membrane fraction, [3H]Win55212-2. The procedure: as §2, §3

In assay [5] the test system is anti-thy-1 antibody-induced nephritis. The experiment in a line: Anti-thy-1 antibody-induced nephritis model. It counts as in vivo, male Wistar rats. The conditions noted are these: for Nuclear cell count in nephritic glomerulus / Urinary protein: oral, once a day until day 6, rats. The procedure:
[IV] Anti-thy-1 antlbody-induced nephritis model (in vivo)
The test compound (prednisolone, compound of Example 7-35) was orally administered to male Wistar rats (6 weeks old), and one hour later, an anti-thy-1 antibody (ox-7, 0.938 mg/ml) was administered at 0.1 ml/rat from the tail vein. The test compound was administered once a day thereafter until day 6. At day 6, the rats were forcibly loaded with 8 ml of tap water and then deprived of water for consecutive 16 hours, during which period urine samples were taken from the rats. At day 7, the rats were killed by exsanguination. The kidney was removed, weighed and fixed with formalin, and tissue samples (PAS stained) were prepared therefrom. Evaluation was done by measuring urinary protein and nuclear cell count in nephritic glomerulus section. The test compound was prepared into a suspension with 0.5% HPMC and administered at 10 ml/kg per dose.
Sham no administration of anti-thy-1 antibody,
loaded with water and orally administered
Control administration of anti-thy-1 antibody,
Prednisolone administration of anti-thy-1 antibody,
Compound of Ex. 7-35 with said test compound

pKi: −log10 of the molar value. Where a name gives a salt, the structure may show the parent alone. Read-outs that look alike come from different tables or passages of the source.

T2 sequence (P20272 whole entry): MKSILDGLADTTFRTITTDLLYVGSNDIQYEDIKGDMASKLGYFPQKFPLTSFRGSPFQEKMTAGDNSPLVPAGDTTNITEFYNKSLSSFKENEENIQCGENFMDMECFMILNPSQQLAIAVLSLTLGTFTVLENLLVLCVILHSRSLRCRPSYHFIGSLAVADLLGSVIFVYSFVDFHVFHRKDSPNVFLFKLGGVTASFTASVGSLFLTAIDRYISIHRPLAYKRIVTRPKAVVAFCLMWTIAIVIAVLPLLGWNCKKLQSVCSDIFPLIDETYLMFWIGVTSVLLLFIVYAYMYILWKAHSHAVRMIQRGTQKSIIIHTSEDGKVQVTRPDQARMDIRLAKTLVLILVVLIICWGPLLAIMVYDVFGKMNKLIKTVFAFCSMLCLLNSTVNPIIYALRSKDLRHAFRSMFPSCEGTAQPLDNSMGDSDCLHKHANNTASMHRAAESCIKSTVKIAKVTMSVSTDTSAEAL

As for `CCCCCNc1c(OC)ccc2c1CN(CCc1ccc(O)cc1)C2=O` [Example 7-31, 2-[2-(4-hydroxyphenyl)ethyl]-5-methoxy-4-pentylamino-2,3-dihydroindol-1-one], the figures for the median effective dose (ED50) in assay [1] and in assay [3] were 0.012 mg/kg and 0.08 mg/kg, respectively. Further, in assay [2], the C/S stood at 125. In addition, in assay [4], the pKi (in general, −log10 of the Ki, conventionally taken in molar units) was 7.96.
The corresponding values for `CCCCCOc1ccc2c(c1OCCCCC)CN(CCc1ccc(N)cc1)C2=O` [Example 7-34, 2-[2-(4-aminophenyl)ethyl]-4,5-bispentyloxy-2,3-dihydroisoindol-1-one] are 0.29 mg/kg, 0.012 mg/kg, 3000 and 6.48.
`CCCCCOc1ccc2c(c1OCCCCC)CN(CCc1ccc(N)cc1)C2=O.Cl` [Example 7-35, 2-[2-(4-aminophenyl)ethyl]-4,5-bispentyloxy-2,3-dihydroisoindol-1-one hydrochloride]: in assay [5] (0.1 mg/kg), the “Nuclear cell count in nephritic glomerulus” value worked out at 84.8 ± 1.2 nuclei/glomerulus and the Urinary protein worked out at 15.2 ± 2.4 mg/16 hr. In assay [5] (0.1 mg/kg, result in words), the “suppressive effect on increase in nuclear cell count in nephritic glomerulus” value was “significant suppressive effect” and the “suppressive effect on increase in urinary protein” value is listed as “significant suppressive effect”.
With `CCCCCOc1c(OC)ccc2c1CN(CCc1ccc(N)cc1)C2=O` [Example 7-37, 2-[2-(4-aminophenyl)ethyl]-5-methoxy-4-pentyloxy-2,3-dihydroisoindol-1-one], the ED50 – broadly, the dose that gives a 50% effect, or the effect in half of the subjects – stood at 0.49 mg/kg in assay [1] and 0.058 mg/kg in assay [3]. Also, the C/S in assay [2] is reported as 93. Further, in assay [4] (rat cerebellar membrane fraction, [3H]Win55212-2 2 nM, 30° C. 90 min, read-out: Ki value, Central receptor (C)), the negative-log Ki (pKi) was 5.89.
Consider `CCCCCOc1c(OC)ccc2c1CCN(CCc1ccc(N)cc1)C2=O` [Example 7-38, hydrochloride], for which the values for the ED50 in assay [1] and in assay [3] were 0.11 mg/kg and 0.011 mg/kg, respectively. Also, the negative logarithm of the Ki (pKi) in assay [2] is 8.00; in assay [4] it was 6.66. In assay [2], the C/S is recorded as 22.
For the compound `CCCCCOc1cc(OC)ccc1/C=C/C(=O)N1CCOCC1` [Example 8-2, (E)-[3-(4-methoxy-2-pentyloxyphenyl)-1-oxo-2-propenyl]-4-morpholine], the median effective dose (ED50) was 0.5 mg/kg in assay [1] and greater than 10 mg/kg in assay [3]. The pKi in assay [2] (rat spleen cells, [3H]Win55212-2 2 nM, 4° C. 360 min, read-out: Ki value, Peripheral receptor (S)) is 8.08; in assay [4] it was 6.25. For the same compound, the C/S in assay [2] is reported as 67.
With `C[C@]12C=CC(=O)C=C1CC[C@@H]1[C@@H]2[C@@H](O)C[C@@]2(C)[C@H]1CC[C@]2(O)C(=O)CO` [Prednisolone, prednisolone, reference compound], in assay [5] (3 mg/kg), the “Nuclear cell count in nephritic glomerulus” value stood at 76.9 ± 0.9 nuclei/glomerulus and the Urinary protein was 20.9 ± 2.7 mg/16 hr.
